Source: patent US6797692B1, “Use of glutamate antagonists for the treatment of cancer” (priority 1998, dated 2004)
“Also recorded” adds a separate entry of the source.

Legend:
[1] = system: human neuroblastoma cell line SK-N-AS; assay: Tumoricidal effect, necrotic cells by trypan blue staining; assay type: cell-based; conditions: Student's t test; for potentiation of tumoricidal effect (toxicity) of cisplatin: antagonist 10 μM plus cisplatin 10 μM; for potentiation of tumoricidal effect (toxicity) of thiotepa: antagonist 10 μM plus thiotepa 10 μM; for potentiation of tumoricidal effect (toxicity) of vinblastin: antagonist 10 μM plus vinblastin 1 μM
Method: (§1) Cell lines and culture. Human neuroblastoma (SKNAS), human rhabdomyosarcoma/medulloblastoma (TE671), human brain astrocytoma (MOGGCCM), human thyroid carcinoma (FTC238), human lung carcinoma (A549), human colon adenocarcinoma (LS180) and human breast carcinoma (T47D) were obtained from European Collection of Cell Cultures (ECACC), Center for Applied Microbiology & Research, Salisbury, UK. SKNAS, TE671, T47D, LS180 were grown in 1:1 mixture of Dulbecco's Modified Eagle's Medium (DMEM; D 6421, Sigma, Ca^2+-concentration 1.05 mM) and Nutrient Mixture F-12 Ham (Ham's F-12; Sigma) supplemented with 10% Foetal Bovine Serum (FBS) (GIBCO). FTC238 was grown in the same culture medium suplemented with 5% FBS. MOGGCCM and A549 were grown in 2:1 mixture of DMEM (D 6046, Sigma, Ca^2+-concentration 1.8 mM):Ham's F-12 supplemented with 10% FBS. Cultures were kept at 37° C. in a 95% air-5% CO2 atmosphere. As Ca^2+-free medium, minimum essential medium M8167 from Sigma was used.
Assessment of tumoricidal effect. Quantitation of cell death was performed at 24, 48 or 72 hrs after exposure to the agents of interest following staining of the cells with trypan blue. This stain is taken up by necrotic cells. The numbers of necrotic cells/100 counted cells served as quantitative measure for tumoricidal effect (% of tumor cell death). For each agent or combination of agents and each time point 5 wells were analysed. Comparisons between groups was performed by means of Student's t-test.
(§2) Exposure to agents. Tumor cells were exposed to the following agents and concentrations: MK 801 (10-500 μM), GYKI 52466 (10-500 μM), Cisplatin (10 μM), Vinblastin (1 μM), Thiotepa (10 μM) alone or in combination with MK 801 (10 μM), GYKI 52466 (10 μM) or NBQX (10 μM).
Data represent the mean±SEM of necrotic cells visualized by trypan blue staining (n=5/group). The potentiating effect of all three glutamate receptor antagonists was most prominent after an exposure time of 72 h. *P<0.05; **P<0.01; ***P<0.001, Student's t test.
Data represent the mean±SEM of necrotic cells visualized by trypan blue staining (n=5/group). The potentiating effect of the NMDA- and both AMPA antagonists is most prominent after an exposure time of 72 h. *P<0.05;**P<0.01;***P<0.001, Student's t test.
Data represent the mean±SEM of necrotic cells visualized by trypan blue staining (n=5/group). The potentiating effect of the NMDA- and both AMPA antagonists is most prominent after an exposure time of 48 hrs. *P<0.05;**P<0.01;***P<0.001, Student's t test.

[2] = system: human tumor cell lines (SKNAS, TE671, MOGGCCM, FTC238, A549, LS180, T47D); assay: MTT assay of cell viability (antiproliferative effect); assay type: cell-based; conditions: 10-500 μM over 96 hrs, linear regression
Method: as §1
Assessment of cell viability. The yellow tetrazolium salt MTT (3-4,5-dimethylthiazol-2-2,5-diphenyltetrazolium bromid) is metabolized by viable, metabolically active cells to purple formazan crystals. Tumor cells grown in 96 well multiplates were incubated over 4 hrs with MTT solution (Cell proliferation kit I, Boehringer Mannheim, Germany). Formazan crystals were solubilized overnight, according to the manufacturer's instructions, and the product was quantified spectrophotometrically by measuring absorbance at 570 nm wave length using a VICTOR Multilabel Counter (Wallach).
as §2
Cells were exposed to either culture medium alone (control) or dizocilpine (10-500 μM) over 96 hrs and viability was measured photometrically by means of the MTT assay. Data represent mean normalized optical densities±SEM of 6-8 measurements and were analyzed by means of linear regression. Abbreviations. SKNAS: human neuroblastoma; TE671: human rhabdomyosarcoma/medulloblastoma; MOGGCCM: human brain astrocytoma; FTC238: human thyroid carcinoma; A 549: human lung carcinoma; LS180: human colon adenocarcinoma; T47D: human breast carcinoma.
Cells were exposed to either culture medium alone (control) or GYKI52466 (10-500 μM) over 96 hrs and viability was measured photometrically by means of the MTT assay. Data represent mean normalized optical densities SEM of 68 measurements and were analyzed by means of linear regression. Abbreviations. […]

Row | Structure (SMILES) | potentiation of tumoricidal effect (toxicity) of cisplatin [1] | potentiation of tumoricidal effect (toxicity) of thiotepa [1] | potentiation of tumoricidal effect (toxicity) of vinblastin [1] | antiproliferative effect in human tumor cell lines (viability, MTT assay) [2] | antiproliferative effect in human tumor cell lines (viability, MTT assay) ([2]; listed as GYK152466) | potentiation of tumoricidal effect (toxicity) of cisplatin ([1]; listed as MK801) | potentiation of tumoricidal effect (toxicity) of thiotepa ([1]; listed as MK801) | antiproliferative effect in human tumor cell lines (viability, MTT assay) ([2]; listed as (+)dizocilpine)
1 | CC1=NN=C(c2ccc(N)cc2)c2cc3c(cc2C1)OCO3 [GYKI 52466] | significantly (P<0.05-0.001) potentiated; also recorded: significantly increase toxicity | significantly (P<0.05-0.001) potentiated; also recorded: potentiate toxicity | significantly (P<0.05-0.001) potentiated; also recorded: potentiate toxicity | concentration dependent antiproliferative effect | significant concentration-dependent antiproliferative effect |  |  | 
2 | C[C@]12N[C@H](Cc3ccccc31)c1ccccc12 [MK 801] | significantly (P<0.05-0.001) potentiated | significantly (P<0.05-0.001) potentiated | significantly (P<0.05-0.001) potentiated; also recorded: potentiate toxicity | significant concentration-dependent antiproliferative effect |  | significantly increase toxicity | potentiate toxicity | concentration dependent antiproliferative effect
3 | NS(=O)(=O)c1cccc2c1c([N+](=O)[O-])cc1nc(O)c(O)nc12 [NBQX, 2,3-dihydroxy-6-nitro-7-sulfaoylbenzo-(F)-quinoxaline] | significantly (P<0.05-0.001) potentiated; also recorded: significantly increase toxicity | significantly (P<0.05-0.001) potentiated; also recorded: potentiate toxicity | significantly (P<0.05-0.001) potentiated; also recorded: potentiate toxicity |  |  |  |  | 
